{
  "source": "patent US20250367117A1",
  "about": "“VITAMIN C-ENCAPSULATED LIPOSOME AND PREPARATION METHOD THEREFOR” (Hankook Liposome Co., Ltd., priority 2022, published 2025)",
  "test": "Bioavailability after oral administration: blood (serum) vitamin C concentration by HPLC",
  "type": "in vivo",
  "settings": "male, SD rat, 10 ml(200 mg)/kg",
  "experimental": "The experimental animals used were SD rats (Samtago BIO KOREA Co., Ltd.), which have anatomical and physiological characteristics similar to humans and have the advantage of being useful as a pharmacokinetic model. The SD rats were male, 7-week-old (240-260 g), and were raised at a temperature of 20-24° C. and a relative humidity of 40-70%, and general symptoms were observed once a day for 5 days before the test. Solid feed for experimental animals (Purina Feed®) was provided, and the rats were allowed to consume it freely. […] As a control group, food vitamin C (purity 99.9%) was used, and the weight was measured and dissolved in purified water to prepare it. […] After putting the test substance into a 3 ml syringe, the zonde for rat oral administration was combined, and the test substance was administrated into the rat. For blood collection, about 300 μl of blood was collected from the jugular vein of all subjects in each group using a disposable syringe (1 ml, 26G, BD Biosciences, USA) at the scheduled time after administration. The blood was placed in a clean, light-shielded 1.5 ml amber tube, allowed to coagulate for 30 minutes at room temperature, and then centrifuged to separate the serum. The oral administration time points were 0, 1, 2, 4, 6, 8, 10, 12, and 24 hours (total of 9 time points). For blood sample separation and analysis, the harvested whole blood was coagulated and centrifuged at 3,000 rpm for 10 minutes using a centrifuge (Micro17R, Hanil, KOR) to separate the serum. Each 100 μl×1 tube was placed in a 1.5 ml Amber tube labeled with the test type, animal number, and blood collection time and stored in an ultra-low temperature freezer (approximately −70° C.). When testing, the stored samples were thawed at room temperature and the blood concentration of vitamin C was analyzed using HPLC (Alliance e2695, Waters, USA). […] For sample processing and analysis, 70 μL of the sample was taken and placed in a microtube, 70 μL of metaphosphoric acid (0.1 g/mL in water) was added, and then mixed using a vortexer for 30 seconds. The mixture was centrifuged at 14,000 rpm for 10 minutes, and the supernatant was transferred to a vial and injected into the HPLC for analysis. Since vitamin C is an endogenous substance, it was used after serum dialysis.",
  "data": [
    {"molecule": "O=C1O[C@H]([C@@H](O)CO)C(O)=C1O", "note": "[vitamin C, ascorbic acid]", "values": [
      {"measurement": "Cmax", "value": 12000, "unit": "ng/mL"},
      {"measurement": "Tmax", "value": 7.67, "unit": "h"},
      {"measurement": "AUC(0-t)", "setting": "read-out: AUC0-24 of vitamin C", "value": 234, "unit": "µg·h/mL"},
      {"measurement": "half-life", "setting": "read-out: T1/2 of vitamin C (converted)", "value": 27.8, "unit": "h"}
    ]}
  ]
}
